Data as given in the NIST ThermoML archive (doi:10.1021/acs.jced.8b00720).
Numbers after ± are expanded uncertainties.

Legend:
[1] = Crystal; DSC
[2] = Molar enthalpy of transition or fusion; settings: Crystal; DSC

CC[C@@H](C(N)=O)N1CCCC1=O [(S)-2-(2-oxopyrrolidin-1-yl)butanamide]
Triple point temperature [1]: 389.85 ± 1.2 K | Molar enthalpy of transition or fusion [2]: 7.07 ± 0.239 kcal/mol
